Results on seven compounds are retold here after patent US9850283B2, “Macrocyclic inhibitors of the PD-1/PD-L1 and CD80(B7-1)/PD-L1 protein/protein interactions” (BRISTOL-MYERS SQUIBB COMPANY, priority 2013, dated 2017).

One experiment addresses T1, Human PD-L1/PD-1 (Homo sapiens, UniProt Q9NZQ7).
T1 construct: made in house; host or cells: HEK293T
Description: HTRF PD-1-Ig/PD-L1-His binding assay (human PD-L1). The conditions noted are these: cluster symbol; read-out: HTRF IC50 cluster. The gist of the method:
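Ig- and His-fused extracellular PD-1/PD-L1 binding in BSA/Tween-20 dPBS. HTRF with Eu anti-Ig (1 nM final) and APC anti-His (20 nM final).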

Experiment [1] addresses T2, LK35.2-hPD-L1 cells / PE-labeled PD-1-Ig (Homo sapiens, UniProt Q9NZQ7).
T2 construct: expressed in transfected cells; host or cells: LK35.2 mouse B cell line
Description: LK35.2-hPD-L1 cell binding high-content screening assay. Type of experiment: cell-based. The note with it: cell binding assay, cell line not given; cluster symbol; read-out: CBA IC50 cluster. The gist of the method: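 Binding of PE-conjugated human PD-1-Ig (1 nM final) to human PD-L1 stably expressed on a mouse B-cell line (LK35.2) was measured by high-content imaging after washes. Compound and labeled PD-1-Ig were co-incubated 1 h at 37 °C with cells in RPMI/10% FCS.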

The structures appear in SMILES notation. Starred links: 1 amine or outer side, 2 acyl side, 3 side chain; linkers in the order of their positions; H or OH if unused. Positions of bridges follow the written chain, without caps; N, C: chain ends. Non-standard residues stand in square brackets, D forms with d. Residues, ends and D or L forms follow the SMILES beside them. Ala(benzothiazol-2-yl) = N[C@@H](Cc1nc2ccccc2s1)C(=O)O; Phe(3,4,5-F3) = N[C@@H](Cc1cc(F)c(F)c(F)c1)C(=O)O; NMe2Nal = CN[C@@H](Cc1ccc2ccccc2c1)C(=O)O; Phe(4-CN) = N#Cc1ccc(C[C@H](N)C(=O)O)cc1; d(cisHyp) = O=C(O)[C@H]1C[C@@H](O)CN1; Hyp = O=C(O)[C@@H]1C[C@@H](O)CN1; NMeF = CN[C@@H](Cc1ccccc1)C(=O)O; X4 = O=C([C@H]1COCCN1[*:1])[*:2]; NMeNle = CCCC[C@H](NC)C(=O)O; NMeA = CN[C@@H](C)C(=O)O; Orn = NCCC[C@H](N)C(=O)O; Dab = NCC[C@H](N)C(=O)O; Dap = NC[C@H](N)C(=O)O; Sar = CNCC(=O)O

T2 sequence (Q9NZQ7 19-290): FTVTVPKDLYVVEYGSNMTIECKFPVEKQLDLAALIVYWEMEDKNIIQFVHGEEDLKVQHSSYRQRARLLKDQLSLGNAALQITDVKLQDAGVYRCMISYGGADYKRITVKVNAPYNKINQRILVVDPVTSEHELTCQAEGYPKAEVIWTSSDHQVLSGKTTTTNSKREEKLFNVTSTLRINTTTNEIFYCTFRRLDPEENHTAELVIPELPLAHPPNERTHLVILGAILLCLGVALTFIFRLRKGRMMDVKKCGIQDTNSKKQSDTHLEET
T1 sequence (Q9NZQ7 with tags, fused parts or gaps): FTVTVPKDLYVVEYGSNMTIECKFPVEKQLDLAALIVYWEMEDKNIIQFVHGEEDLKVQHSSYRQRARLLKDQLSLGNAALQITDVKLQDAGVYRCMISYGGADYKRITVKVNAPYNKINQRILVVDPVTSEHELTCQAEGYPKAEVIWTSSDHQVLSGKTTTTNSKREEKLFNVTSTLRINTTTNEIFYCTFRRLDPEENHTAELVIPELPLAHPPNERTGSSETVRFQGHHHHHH

Turning to `CCCC[C@H]1C(=O)N(C)[C@@H](CCCC)C(=O)N[C@@H](CC(C)C)C(=O)N[C@H](C(=O)NCC(N)=O)CSCC(=O)N[C@@H](Cc2ccc(O)cc2)C(=O)N(C)[C@@H](C)C(=O)N[C@@H](CC(=O)O)C(=O)N2CCC[C@H]2C(=O)N[C@@H](Cc2cnc[nH]2)C(=O)N[C@@H](CCC(=O)O)C(=O)N2C[C@H](O)C[C@H]2C(=O)N[C@@H](Cc2c[nH]c3ccccc23)C(=O)N[C@@H](CO)C(=O)N[C@@H](Cc2c[nH]c3ccccc23)C(=O)N1C` [Example 6026] ({CH2CO}-Y[NMeA]DPHE[Hyp]WSW[NMeNle][NMeNle]LCG-NH2; thioether N-14), the concentration for half-maximal inhibition (IC50) at Human PD-L1/PD-1 was 0.385 to 6.74 nM; in experiment [1], 0.158 to 4.71 nM.
On to `CCCC[C@H]1C(=O)N(C)[C@@H](CCCC)C(=O)N[C@@H](CCN)C(=O)N[C@H](C(=O)NCC(N)=O)CSCC(=O)N[C@@H](Cc2ccc(O)cc2)C(=O)N(C)[C@@H](C)C(=O)N[C@@H](CCN)C(=O)N2CCC[C@H]2C(=O)N[C@@H](Cc2c[nH]cn2)C(=O)N[C@@H](CCC(=O)O)C(=O)N2C[C@H](O)C[C@H]2C(=O)N[C@@H](Cc2c[nH]c3ccccc23)C(=O)N[C@@H](C(C)C)C(=O)N[C@@H](Cc2c[nH]c3ccccc23)C(=O)N1C` [Example 5091] ({CH2CO}-Y[NMeA][Dab]PHE[Hyp]WVW[NMeNle][NMeNle][Dab]CG-NH2; thioether N-14), for which the half-inhibitory concentration (IC50) at Human PD-L1/PD-1 is 6.76 to 30.3 nM; in experiment [1], 4.78 to 72.9 nM.
As to `CCCC[C@H]1C(=O)N(C)[C@@H](CCCC)C(=O)N[C@@H](CCCN)C(=O)N[C@H](C(=O)NCC(N)=O)CSCC(=O)N[C@@H](Cc2ccc(O)cc2)C(=O)N(C)[C@@H](C)C(=O)N[C@@H](CC(N)=O)C(=O)N2CCC[C@H]2C(=O)N[C@@H](CN)C(=O)N[C@@H](CC(C)C)C(=O)N2C[C@H](Cc3ccc(F)cc3)C[C@H]2C(=O)N[C@@H](Cc2c[nH]c3ccccc23)C(=O)N[C@@H](CO)C(=O)N[C@@H](Cc2c[nH]c3ccccc23)C(=O)N1C` [Example 13013], the 50% inhibitory concentration (IC50) at Human PD-L1/PD-1 lay within 0.385 to 6.74 nM; in experiment [1] it was 0.158 to 4.71 nM.
In the same order, the values of `CCCC[C@H]1C(=O)N(C)CC(=O)N[C@@H](CC(=O)O)C(=O)N[C@@H](C(C)C)C(=O)N(C)[C@@H](Cc2ccccc2)C(=O)N[C@@H](Cc2ccc(O)cc2)C(=O)N(C)CC(=O)N[C@@H](Cc2nc3ccccc3s2)C(=O)N[C@@H](Cc2ccc(O)cc2)C(=O)N[C@@H](CC(C)C)C(=O)N[C@H](C(=O)NCC(N)=O)CSCC(=O)N[C@@H](Cc2ccccc2)C(=O)N(C)[C@@H](Cc2ccccc2)C(=O)N1C` [Example 3557] ({CH2CO}-F[NMeF][NMeNle][Sar]DV[NMeF]Y[Sar][Ala(benzothiazol-2-yl)]YLCG-NH2; thioether N-13) are more than 30.5 nM and more than 74.3 nM.
Turning to `CCCC[C@H]1C(=O)N2C[C@H](O)C[C@@H]2C(=O)N[C@@H](CC(=O)O)C(=O)N[C@@H](C(C)C)C(=O)N(C)[C@@H](Cc2ccccc2)C(=O)N[C@@H](CCC(=O)O)C(=O)N2CCOC[C@@H]2C(=O)N[C@@H](Cc2c[nH]c3ccccc23)C(=O)N[C@@H](Cc2ccc(O)cc2)C(=O)N[C@@H](CCCN)C(=O)N[C@H](C(=O)NCC(N)=O)CSCC(=O)N[C@@H](Cc2cc(F)c(F)c(F)c2)C(=O)N(C)[C@@H](Cc2ccccc2)C(=O)N1C` [Example 3599] ({CH2CO}-[Phe(3,4,5-F3)][NMeF][NMeNle][d(cisHyp)]DV[NMeF]E[X4]WY[Orn]CG-NH2; thioether N-13), the IC50 at Human PD-L1/PD-1 lay in the range of 0.385 to 6.74 nM; in experiment [1], 0.158 to 4.71 nM.
As for `CCCC[C@H]1C(=O)N(C)[C@@H](CCCC)C(=O)N[C@@H](CCCNC(=N)N)C(=O)N[C@H](C(=O)NCC(N)=O)CSCC(=O)N[C@@H](Cc2ccc(C#N)cc2)C(=O)N(C)[C@@H](C)C(=O)N[C@@H](CC(N)=O)C(=O)N2CCC[C@H]2C(=O)N[C@@H](CN)C(=O)N[C@@H](CC(C)C)C(=O)N2C[C@H](O)C[C@H]2C(=O)N[C@@H](Cc2c[nH]c3ccccc23)C(=O)N[C@@H](CO)C(=O)N[C@@H](Cc2c[nH]c3ccccc23)C(=O)N1C` [Example 7038] ({CH2CO}-[Phe(4-CN)][NMeA]NP[Dap]L[Hyp]WSW[NMeNle][NMeNle]RCG-NH2; thioether N-14), the figures for the IC50 (at Human PD-L1/PD-1; in experiment [1]) were 0.385 to 6.74 nM and 0.158 to 4.71 nM, respectively.
On to `CCCC[C@H]1C(=O)N(C)CC(=O)N[C@@H](CC(N)=O)C(=O)N[C@@H](C(C)C)C(=O)N(C)[C@@H](Cc2ccccc2)C(=O)N[C@@H](Cc2ccc(O)cc2)C(=O)N(C)CC(=O)N[C@@H](Cc2c[nH]c3ccccc23)C(=O)N[C@@H](Cc2ccc(O)cc2)C(=O)N[C@@H](CCCN)C(=O)N[C@H](C(=O)NCC(N)=O)CSCC(=O)N[C@@H](Cc2ccccc2)C(=O)N(C)[C@@H](Cc2ccc3ccccc3c2)C(=O)N1C` [Example 3603] ({CH2CO}-F[NMe2Nal][NMeNle][Sar]NV[NMeF]Y[Sar]WY[Orn]CG-NH2; thioether N-13), for which the 50% inhibitory concentration (IC50) on Human PD-L1/PD-1 was 6.76 to 30.3 nM; in experiment [1], 4.78 to 72.9 nM.
